Assay results as given in patent US4657897A, “N^6 -substituted adenosines for treating pain” (Warner-Lambert Company, priority 1985, dated 1987).
pIC50: −log10 of the molar value.

Assays:
[1] = Mouse Activity and Screen Test (MAST), screen test failure (ST); type: in vivo, mouse (Swiss-Webster, male); details: for minimal effective dose: Mus musculus, ip, lowest dose at which an A rating is achieved, screen test, intraperitoneal, 1 h prior to testing, read-out: MAST ST LAD; for Inhibition of screen test failure: percent of mice falling off the screen
Experimental: Treatments are administered intraperitoneally one hour prior to testing. […] Compounds are dissolved or suspended in 0.2% Methocel. Control animals are injected with Methocel.
The compounds are identified in the Examples.

adenosine A2 receptor = target: T1, adenosine A2 receptor (Rattus norvegicus, UniProt P30543); assay: Adenosine Receptor Binding--A2 Receptor Affinity (RBA2), [3H]NECA binding, rat striatal membranes; parameters: species or system rat (mixed sex Sprague-Dawley; male Long-Evans); details: 4 nM [3H]NECA, 50 nM N6-cyclopentyladenosine, 25° C., 60 min
T1 construct: 5 mg original tissue weight of rat weight of rat striatal membranes; tissue Pel-Freez (Rogers, Ark.) for the brains; host or cells: rat striatum (Sprague-Dawley; Long-Evans gave essentially identical results), membranes
T1 sequence (P30543 whole entry): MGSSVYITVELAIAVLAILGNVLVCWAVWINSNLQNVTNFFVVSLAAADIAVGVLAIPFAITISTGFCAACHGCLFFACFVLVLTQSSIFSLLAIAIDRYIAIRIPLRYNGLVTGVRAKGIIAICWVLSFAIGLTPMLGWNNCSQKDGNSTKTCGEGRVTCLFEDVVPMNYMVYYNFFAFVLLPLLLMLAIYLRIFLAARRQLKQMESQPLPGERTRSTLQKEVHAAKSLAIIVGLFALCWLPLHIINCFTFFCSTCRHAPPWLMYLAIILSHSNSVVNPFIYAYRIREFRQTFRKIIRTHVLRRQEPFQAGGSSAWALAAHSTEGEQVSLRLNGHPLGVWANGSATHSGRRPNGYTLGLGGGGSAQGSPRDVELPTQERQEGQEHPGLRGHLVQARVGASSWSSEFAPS
Experimental: Adenosine Receptor Binding--A2 Receptor Affinity (RBA2)
Brains from 200-500 g mixed sex Sprague-Dawley rats were purchased from Pel-Freez (Rogers, Ark.). […] Brains were thawed and then kept on ice while the striata were dissected out. Striata were disrupted in 10 vol of ice-cold 50 mM Tris.HCl (pH 7.7 at 25° C., pH 8.26 at 5° C.) (Tris) for 30 seconds in a Polytron PT-10 (Brinkmann) at setting 5. The suspension was centrifuged at 50,000 xg for ten minutes, the supernatant discarded, the pellet resuspended in 10 vol ice-cold Tris as above, recentrifuged, resuspended at 1 g/5 ml, and stored in plastic vials at -70° C. […] When needed, tissue was thawed at room temperature, disrupted in a Polytron, and kept on ice until used.
Test compounds were dissolved at 10 mM in dimethylsulfoxide on the same day as the experiment, and diluted in dimethylsulfoxide to 100× the final incubation concentration. […] [^3 H]NECA was diluted to 40 nM in Tris. […] After all additions, the rack of tubes was vortexed, and the tubes were then incubated for 60 min at 25° C. in a shaking water bath. The rack of tubes was vortexed an additional time halfway through the incubation.
Incubations were terminated by filtration through 2.4 cm GF/B filters under reduced pressure. Each tube was filtered as follows: the contents of the tube were poured onto the filter, 4 ml of ice-cold Tris were added to the tube and the contents poured onto the filter, and the filter was washed twice with 4 ml of ice-cold Tris. The filtration was complete in about twelve seconds. Filters were put in scintillation vials, 8 ml of Formula 947 scintillation fluid added, and the vials left overnight, shaken, and counted in a liquid scintillation counter at 40% efficiency.
The IC50 was calculated by weighted nonlinear least squares curve-fitting to the mass-action equation. [formula] where Y is cpm bound
T is cpm total binding without drug
S is cpm specific binding without drug
D is the concentration of drug
K is the IC50 of the drug
Weighting factors were calculated under the assumption that the standard deviation was proportional to the predicted value of Y. Nonspecific binding was treated as a very large (infinite) concentration of drug in the computer analysis.

adenosine A1 receptor = target: T2, adenosine A1 receptor (Rattus norvegicus, UniProt P25099); assay: Adenosine Receptor Binding--A1 Receptor Affinity (RBA1), [3H]-CHA binding, rat whole brain membranes; parameters: species or system rat (male Long Evans); details: 1.0 nM [3H]-CHA, 25° C., 1 h
T2 construct: Whole brain minus cerebellum and brainstem from male Long Evans rats; from tissue; host or cells: rat whole brain minus cerebellum and brainstem (male Long Evans), membranes
T2 sequence (P25099 1-326): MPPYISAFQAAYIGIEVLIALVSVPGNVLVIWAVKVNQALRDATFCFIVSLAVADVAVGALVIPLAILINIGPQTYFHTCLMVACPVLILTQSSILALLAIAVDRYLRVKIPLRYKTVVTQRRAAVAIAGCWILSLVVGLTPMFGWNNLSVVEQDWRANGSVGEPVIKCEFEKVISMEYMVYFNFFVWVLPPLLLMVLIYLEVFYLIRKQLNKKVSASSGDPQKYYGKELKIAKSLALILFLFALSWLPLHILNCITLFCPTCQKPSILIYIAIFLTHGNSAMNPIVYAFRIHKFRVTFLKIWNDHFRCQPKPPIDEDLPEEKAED
Experimental: Adenosine Receptor Binding--A1 Receptor Affinity (RBA1)
Whole brain minus cerebellum and brainstem from male Long Evans rats (150-200 g) was homogenized in 30 volumes of ice-cold 0.05M Tris-HCl buffer pH 7.7 using a Brinkman Polytron PT-10, (setting number 6 for 20 seconds) and centrifuged for ten minutes at 20,000×g (Sorvall RC-2), 4° C. The supernatant was discarded, and the pellet was resuspended and centrifuged as before. The pellet was resuspended in 20 ml Tris-HCl buffer containing two International Units/ml of adenosine deaminase (Sigma type III from calf intestinal mucosa), incubated at 37° C. for 30 minutes, then subsequently at 0° C. for ten minutes. The homogenate was again centrifuged, and the final pellet was resuspended in ice-cold 0.05M Tris-HCl buffer pH 7.7 to a concentration of 20 mg/ml original wet tissue weight and used immediately.
Tissue homogenate (10 mg/ml) was incubated in 0.05M Tris-HCl buffer pH 7.7 containing 1.0 nM [^3 H]-N^6 -cyclohexyladenosine[^3 H]-CHA) with or without test agents in triplicate for one hour at 25° C. Incubation volume was 2 ml. Unbound [^3 H]-CHA was separated by rapid filtration under reduced pressure through Whatman glass fiber (GF/B) filters. The filters were rinsed three times with 5 ml of ice cold 0.05M Tris-HCl buffer pH 7.7. The radio-labeled ligand retained on the filter was measured by liquid scintillation spectrophotometry after shaking the filters for one hour or longer on a mechanical shaker in 10 ml of Beckman Ready-Solv HP scintillation cocktail.
Nonspecific binding was defined as the binding which occurred in the presence of 1 mM theophylline. The concentration of test agent which inhibited 50% of the specific binding (IC50) was determined by nonlinear computer curve fit. The Scatchard plot was calculated by linear regression of the line obtained by plotting the amount of radioligand bound (pmoles/gram of tissue) [formula] Since the amount of radioligand bound was a small fraction of the total amount added, free radioligand was defined as the concentration (nM) of radioligand added to the incubation mixture. The Hill coefficient was calculated by linear regression of the line obtained by plotting the log of the bound radioligand vs the log of the [formula] The maximal number of binding sites (Bmax) was calculated from the Scatchard plot.

Row | Compound | pIC50 (adenosine A2 receptor) | pIC50 (adenosine A1 receptor) | minimal effective dose [1] | Inhibition of screen test failure ([1]; 10 mg/kg intraperitoneal) | Inhibition of screen test failure ([1]; 30 mg/kg intraperitoneal) | Inhibition of screen test failure ([1]; 100 mg/kg intraperitoneal)
1 | OC[C@H]1O[C@@H](n2cnc3c(NCC(c4ccc(Cl)cc4)c4ccc(Cl)cc4)ncnc32)[C@H](O)[C@@H]1O [Example 17, N^6-(2,2-Di(4-chlorophenyl)ethyl)adenosine] | 6.15 | 6.29 | > 100 mg/kg | – | – | –
2 | OC[C@H]1O[C@@H](n2cnc3c(NCC(c4ccccc4)c4ccccc4)nc(Cl)nc32)[C@H](O)[C@@H]1O [Example 3, N^6-(2,2-Diphenylethyl)-2-chloroadenosine] | 6.86 | 7.17 | > 100 mg/kg | 0% | 11% | 44%

More lines, main results first:

Row | pIC50 (adenosine A2 receptor) | pIC50 (adenosine A1 receptor) | Compound | minimal effective dose [1] | Inhibition of screen test failure ([1]; 10 mg/kg intraperitoneal) | Inhibition of screen test failure ([1]; 30 mg/kg intraperitoneal) | Inhibition of screen test failure ([1]; 100 mg/kg intraperitoneal)
3 | 6.33 | 6.55 | CC(CNc1nc(N)nc2c1ncn2[C@@H]1O[C@H](CO)[C@@H](O)[C@H]1O)(c1ccccc1)c1ccccc1 [Example 21, N^6-(2,2-Diphenylpropyl)-2-aminoadenosine] | > 100 mg/kg | – | – | –
4 | 7.25 | 7.68 | COc1ccc(C(CNc2ncnc3c2ncn3[C@@H]2O[C@H](CO)[C@@H](O)[C@H]2O)c2ccccc2)cc1 (stereo partly drawn) [Example 19, N^6-(2-(4-Methoxyphenyl)-2-phenylethyl)adenosine] | 30 mg/kg | – | – | –
5 | 7.03 | 7.92 | OC[C@H]1O[C@@H](n2cnc3c(NCC(O)(c4ccccc4)c4ccccc4)ncnc32)[C@H](O)[C@@H]1O [Example 22, N^6-(2,2-Diphenyl-2-hydroxyethyl)adenosine] | 100 mg/kg | – | – | –
6 | 5.17 | 4.51 | CC(=O)OC[C@H]1O[C@@H](n2cnc3c(NCC(c4ccccc4)c4ccccc4)nc(Cl)nc32)[C@H](OC(C)=O)[C@@H]1OC(C)=O [Example 27, 2',3',5'-Tri-O-acetyl-N^6-(2,2-diphenylethyl)-2-chloroadenosine] | > 100 mg/kg | – | – | –
